Data from ChEMBL document CHEMBL1151087, “N-sulfonyl derivatives of 6,7-dichloro 3,4-dihydro-3-oxo-quinoxalinecarboxylate as glycine-site NMDA and AMPA antagonists” (Bioorg Med Chem Lett, 1993).

Key:
[1] = Partition coefficient was measured using a shake flask method with octanol/buffer at physiological pH; assay type: physicochemical
[2] = biological target: Glutamate [NMDA] receptor; test: Tested for the affinity to the glycine site -NMDA receptor using [3H]Gly as radioligand.; assay type: protein-complex assay
[3] = biological target: Glutamate receptor ionotropic AMPA (Homo sapiens, UniProt P42261+P42262+P42263+P48058)
Description: Tested for the affinity to the Ionotropic glutamate receptor AMPA using [3H]-AMPA as radioligand

Rattus norvegicus = species on record: Rattus norvegicus; test: Tested for the ability to suppress the spontaneous epileptiform discharge rate in a cortical wedge model; assay type: functional, organism-based

SMILES | logD [1] | IC50 [2] [µM] | IC50 [3] [µM] | IC50 (Rattus norvegicus) [µM]
O=C(O)c1nc2cc(Cl)c(Cl)cc2nc1O [6,7-DICHLORO-3-HYDROXY-2-QUINOXALINECARBOXYLIC ACID] | -1 | 0.46 | 6.7 | –
CS(=O)(=O)NC(=O)c1nc2cc(Cl)c(Cl)cc2nc1O | -1.1 | 0.36 | 14 | 11
O=C(NS(=O)(=O)c1ccccc1)c1nc2cc(Cl)c(Cl)cc2[nH]c1=O | 0.15 | 0.12 | 4.3 | 11
O=c1[nH]c2cc([N+](=O)[O-])c([N+](=O)[O-])cc2[nH]c1=O [DNQX] | 0.09 | 0.84 | 0.2 | –
NS(=O)(=O)c1cccc2c1c([N+](=O)[O-])cc1nc(O)c(O)nc12 [NBQX] | – | > 100 | – | –
O=C(O)c1cc(O)c2c(Cl)cc(Cl)cc2n1 | -0.56 | 0.068 | > 100 | 5
